Results reported in patent US20060148732A1, “Inhibition of NF-kappaB by triterpene compositions” (priority 2000, published 2006).

How the values were obtained:
SKH-1 hairless mice = assay: UVB-induced skin lesions; format: in vivo, mouse; settings: UVB-irradiated SKH-1 mice; topical, 15 min before UVB
Experimental: In the study, SKH-1 hairless mice are irradiated with UVB radiation at the dose of 1.8 kJ/m^2 for up to 15 min. Mice are pretreated with two different doses of F035 of (2 mg and 4 mg per dose) as well as negative controls (F060 or acetone alone). It is believed a minimum of 10 mice per group are needed to obtain statistically meaningful results. […] The studies are conducted for a short period of time to evaluate the preventive effect of the compounds. It is not expected to see visible tumors, even with UVB alone, only skin lesions within the specified time-frame. A slight erythema (minor redness of the skin) may be observed, which should disappear the next day after irradiation.
The UV apparatus used has eight Westinghouse FS40 sunlamps, an IL-1400A radiometer/photometer, and an attached IL-1403 UVB phototherapy radiometer with a SEL 240/UVB-1/TD detector. The middle part has several chambers, each holding an individual mouse. There are holes inside the chambers for proper ventilation while mice are being irradiated. The chambers rotate in circular motion during irradiation so each mouse is exposed to UVB light uniformly. […] The amount of the UVB exposure will be measured with a UVB radiometer. […]
Methods. […] The relative efficacy of the treatment was evaluated utilizing endpoints of epidermal thickness, leukocyte invasion, labeling (with BrdU) index, p53 mutations and 8-OH-dG formation. […]

PARP in Jurkat cells = assay: Immunoblot analysis of PARP degradation; format: cell-based, human
Experimental: Apoptosis induced by F035 & D1 was examined by proteolytic cleavage of poly (ADP-ribose) polymerase (PARP). Jurkat cells (2×10^6/ml) were treated with F035 (2 μg/ml) and D1 (2 μg/ml) for different lengths of time. Cell lysates were prepared in buffer containing 20 mM HEPES, 250 mM NaCl, 2 mM EDTA, 0.1% NP-40, 2 μg/ml leupeptin, 2 μg/ml aprotinin, 0.5 μg/ml benzamidine, 1 mM DTT and 1 mM PMSF. Cellular proteins (60 μg/ml) were separated on a 7.5% SDS polyacrylamide gel and electrotransferred onto a nitrocellulose membrane. The membrane was probed first with monclonal anti-PARP antibody (PharMingen) and then with anti-mouse antibody conjugated to horse radish peroxidase (HRPO). Protein bands were detected by chemiluminescense (ECL, Amersham). The extent of cleavage of the 116-kDa PARP into 85-kDa and 41-kDa peptide products was used as a measure of apoptosis (Tewari et al., 1995).
Immunoblot Analysis of PARP Degradation. Induction of apoptosis was also examined by proteolytic cleavage of PARP (Nicholson and Thornberry, 1997). Jurkat cells (3×10^6) were treated with 2 μg/ml of F094, avicin D, or avicin G at 37° C. Cell lysates were prepared in a buffer containing 20 mM HEPES, 250 mM NaCl, 2 mM EDTA, 0.1% NP-40, 2 μg/ml leupeptin, 2 μg/ml aprotinin, 0.5 μg/ml benzamidine, 1 mM DTT, and 1 mM PMSF. Cellular proteins (60 μg/ml) were separated on a 7.5% SDS polyacrylamide gel and electrotransferred onto a nitrocellulose membrane. The membrane was probed first with monoclonal anti-PARP antibody (Pharmingen) and then with anti-mouse antibody conjugated to horseradish peroxidase (HRPO). Protein bands were detected by chemiluminescence (ECL). The appearance of an 85 kDa cleavage product was used as a measure of apoptosis.

[1] = system: mitochondrial fraction of Jurkat cells; assay: Cytochrome c release in a cell free system; format: biochemical, human; settings: isolated mitochondria; 25 μM pretreatment
Experimental: Isolation of the Submitochondrial Fraction. Jurkat cells (1.5-2.0×10^7) were suspended in 1 ml sucrose buffer (250 mM sucrose in 30 mM Tris-HCl pH 7.4) and transferred into an N2 cavitation chamber (PARR Instruments Company, Moline, Ill.). The cells were subjected to N2 cavitation (300 psi for 5 min) as per the manufacturer's instructions. Under these conditions most of the cell membrane was disrupted with no change in the mitochondrial respiratory activity. Next, DNA and the nuclear fraction were removed by centrifugation (1500 g, 30 sec). The supernatant was further centrifuged (16000 g, 10 min) and the pellet was used as the submitochondrial fraction.
To observe if monoterpene/triterpenoid saponins directly affected mitochondria to induce apoptosis, experiments were carried out using avicin G in a cell free system. Mitochondria were isolated from Jurkat cells by the N2 cavitation method.

| Substance | decrease in number of cycling cells (BrdU labeling) (SKH-1 hairless mice) [%] | effect on cleavage of PARP induced by F094 or avicins (PARP in Jurkat cells; 100 μM pretreatment 1 hour) | effect on F035 induced cleavage of PARP (PARP in Jurkat cells; 100 μM pretreatment for 1 h) | effect on avicin G induced cytochrome c release [1] |
| --- | --- | --- | --- | --- |
| Vitamin E | 30 |  |  |  |
| z-Val-Ala-Asp-CH2F [z-vad fmk, reference compound] |  | totally blocked the cleavage of PARP | completely reversed | did not affect the release of cytochrome c |
